Where a SMILES comes first, the peptide text is derived from it. [ ]: non-standard residue; d: D form. pGlu = O=C1CC[C@@H](C(=O)O)N1; Thz = O=C(O)[C@@H]1CSCN1
What was measured:
B2 bradykinin receptor = biological target: T1, B2 bradykinin receptor (Homo sapiens, UniProt P30411)
T1 sequence (P30411 whole entry): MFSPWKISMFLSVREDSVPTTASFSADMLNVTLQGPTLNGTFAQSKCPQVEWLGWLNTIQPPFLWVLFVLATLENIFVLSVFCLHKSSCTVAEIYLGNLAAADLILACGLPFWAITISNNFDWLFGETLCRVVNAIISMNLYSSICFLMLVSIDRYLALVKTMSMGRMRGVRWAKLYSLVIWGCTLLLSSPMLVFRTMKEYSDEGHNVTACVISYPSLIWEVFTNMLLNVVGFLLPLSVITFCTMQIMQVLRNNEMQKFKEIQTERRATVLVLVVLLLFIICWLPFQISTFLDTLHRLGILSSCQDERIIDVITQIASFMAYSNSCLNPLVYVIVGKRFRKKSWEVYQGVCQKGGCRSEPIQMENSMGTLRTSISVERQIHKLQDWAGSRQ

[1] = biological target: T2, Gastrin/cholecystokinin type B receptor (Homo sapiens, UniProt P32239)
T2 sequence (P32239 whole entry): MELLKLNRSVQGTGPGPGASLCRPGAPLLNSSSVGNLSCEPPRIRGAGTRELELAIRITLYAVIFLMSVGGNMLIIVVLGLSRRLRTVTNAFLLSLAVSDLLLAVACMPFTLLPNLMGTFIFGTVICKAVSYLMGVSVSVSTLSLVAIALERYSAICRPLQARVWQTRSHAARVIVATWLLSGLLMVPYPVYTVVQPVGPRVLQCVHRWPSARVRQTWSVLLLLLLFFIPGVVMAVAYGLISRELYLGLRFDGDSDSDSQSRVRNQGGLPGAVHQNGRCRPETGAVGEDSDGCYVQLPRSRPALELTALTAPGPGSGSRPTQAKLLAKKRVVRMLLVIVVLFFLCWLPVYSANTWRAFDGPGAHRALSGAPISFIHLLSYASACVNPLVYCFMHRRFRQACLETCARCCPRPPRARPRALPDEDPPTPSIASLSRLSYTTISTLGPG

[2] = biological target: T3, Muscarinic acetylcholine receptor M2 (Homo sapiens, UniProt P08172); format: functional, cell-based
T3 sequence (P08172 whole entry): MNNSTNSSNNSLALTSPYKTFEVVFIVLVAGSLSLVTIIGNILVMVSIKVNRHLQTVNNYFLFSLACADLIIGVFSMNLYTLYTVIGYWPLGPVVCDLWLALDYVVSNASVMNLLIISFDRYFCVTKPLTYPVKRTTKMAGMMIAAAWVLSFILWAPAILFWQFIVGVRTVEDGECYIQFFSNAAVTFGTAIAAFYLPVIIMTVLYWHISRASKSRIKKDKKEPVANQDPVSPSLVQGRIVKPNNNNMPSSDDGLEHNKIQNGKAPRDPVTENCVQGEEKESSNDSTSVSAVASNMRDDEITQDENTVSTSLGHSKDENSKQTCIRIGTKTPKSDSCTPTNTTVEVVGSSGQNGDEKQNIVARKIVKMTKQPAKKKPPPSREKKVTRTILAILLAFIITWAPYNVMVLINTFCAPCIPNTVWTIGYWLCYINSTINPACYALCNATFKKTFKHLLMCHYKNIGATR

[3] = biological target: Neuronal acetylcholine receptor subunit alpha-4 (Homo sapiens, UniProt P43681)
Chain of Neuronal acetylcholine receptor subunit alpha-4 (P43681 whole entry): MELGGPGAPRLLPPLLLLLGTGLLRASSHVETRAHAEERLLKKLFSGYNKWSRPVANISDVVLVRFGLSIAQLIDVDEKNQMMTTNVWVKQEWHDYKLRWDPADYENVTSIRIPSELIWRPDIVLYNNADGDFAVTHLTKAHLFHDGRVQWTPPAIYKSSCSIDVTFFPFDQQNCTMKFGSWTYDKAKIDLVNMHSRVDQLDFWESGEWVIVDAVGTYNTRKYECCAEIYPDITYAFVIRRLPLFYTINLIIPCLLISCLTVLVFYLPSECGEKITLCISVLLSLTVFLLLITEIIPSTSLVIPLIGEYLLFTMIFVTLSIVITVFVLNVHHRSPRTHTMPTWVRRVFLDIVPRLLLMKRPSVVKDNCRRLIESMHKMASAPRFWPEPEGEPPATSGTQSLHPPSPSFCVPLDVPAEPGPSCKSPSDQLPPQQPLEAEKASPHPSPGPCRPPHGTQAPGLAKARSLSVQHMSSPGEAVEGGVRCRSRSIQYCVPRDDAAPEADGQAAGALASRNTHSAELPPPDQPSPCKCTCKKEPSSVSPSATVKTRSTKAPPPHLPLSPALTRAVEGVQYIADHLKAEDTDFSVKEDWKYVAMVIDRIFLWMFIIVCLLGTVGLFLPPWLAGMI

[4] = biological target: T4, 5-hydroxytryptamine receptor 1A (Homo sapiens, UniProt P08908); format: functional, cell-based
T4 sequence (P08908 whole entry): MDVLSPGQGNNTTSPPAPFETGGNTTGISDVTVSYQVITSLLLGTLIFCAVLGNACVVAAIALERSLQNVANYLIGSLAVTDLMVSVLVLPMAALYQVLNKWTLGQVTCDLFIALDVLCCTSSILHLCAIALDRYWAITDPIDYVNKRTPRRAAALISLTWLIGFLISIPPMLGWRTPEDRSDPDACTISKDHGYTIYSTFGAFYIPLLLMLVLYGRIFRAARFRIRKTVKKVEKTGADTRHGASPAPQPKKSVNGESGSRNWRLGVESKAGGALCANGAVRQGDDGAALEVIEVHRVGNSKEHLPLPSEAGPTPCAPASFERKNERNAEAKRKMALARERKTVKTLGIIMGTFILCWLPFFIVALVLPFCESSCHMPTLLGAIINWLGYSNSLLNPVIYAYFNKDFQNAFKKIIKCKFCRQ

Motilin receptor = Motilin receptor (Homo sapiens, UniProt O43193)
Chain of Motilin receptor (O43193 whole entry): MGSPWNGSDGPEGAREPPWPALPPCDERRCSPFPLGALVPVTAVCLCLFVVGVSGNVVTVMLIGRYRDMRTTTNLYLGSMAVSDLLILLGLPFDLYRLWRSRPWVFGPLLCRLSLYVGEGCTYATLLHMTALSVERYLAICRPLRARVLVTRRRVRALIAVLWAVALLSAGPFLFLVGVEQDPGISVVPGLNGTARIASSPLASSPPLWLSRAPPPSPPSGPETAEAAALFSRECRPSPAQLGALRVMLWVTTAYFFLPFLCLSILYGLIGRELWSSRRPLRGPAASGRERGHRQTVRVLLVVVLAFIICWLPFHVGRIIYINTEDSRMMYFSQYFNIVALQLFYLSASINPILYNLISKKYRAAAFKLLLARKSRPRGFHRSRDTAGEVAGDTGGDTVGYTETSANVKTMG

[5] = biological target: T5, Prostaglandin G/H synthase 1 (Rattus norvegicus, UniProt Q63921); format: functional
T5 sequence (Q63921 whole entry): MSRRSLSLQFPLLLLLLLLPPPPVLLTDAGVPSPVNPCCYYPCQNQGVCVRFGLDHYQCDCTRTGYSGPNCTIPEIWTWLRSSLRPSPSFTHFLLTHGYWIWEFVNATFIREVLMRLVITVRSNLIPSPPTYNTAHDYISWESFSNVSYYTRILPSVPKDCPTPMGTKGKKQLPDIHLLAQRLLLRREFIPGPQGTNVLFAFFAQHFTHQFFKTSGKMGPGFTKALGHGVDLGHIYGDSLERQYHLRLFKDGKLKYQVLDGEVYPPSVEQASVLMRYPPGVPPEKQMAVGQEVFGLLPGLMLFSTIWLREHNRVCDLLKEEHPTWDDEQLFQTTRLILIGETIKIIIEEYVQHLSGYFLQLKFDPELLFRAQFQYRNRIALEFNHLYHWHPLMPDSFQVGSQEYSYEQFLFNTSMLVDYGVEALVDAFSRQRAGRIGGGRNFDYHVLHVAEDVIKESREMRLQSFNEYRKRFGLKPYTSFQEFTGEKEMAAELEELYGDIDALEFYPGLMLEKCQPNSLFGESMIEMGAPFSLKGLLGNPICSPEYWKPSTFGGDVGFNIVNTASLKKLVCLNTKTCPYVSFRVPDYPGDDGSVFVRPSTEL

D(3) dopamine receptor = D(3) dopamine receptor (Homo sapiens, UniProt P35462)
Chain of D(3) dopamine receptor (P35462 whole entry): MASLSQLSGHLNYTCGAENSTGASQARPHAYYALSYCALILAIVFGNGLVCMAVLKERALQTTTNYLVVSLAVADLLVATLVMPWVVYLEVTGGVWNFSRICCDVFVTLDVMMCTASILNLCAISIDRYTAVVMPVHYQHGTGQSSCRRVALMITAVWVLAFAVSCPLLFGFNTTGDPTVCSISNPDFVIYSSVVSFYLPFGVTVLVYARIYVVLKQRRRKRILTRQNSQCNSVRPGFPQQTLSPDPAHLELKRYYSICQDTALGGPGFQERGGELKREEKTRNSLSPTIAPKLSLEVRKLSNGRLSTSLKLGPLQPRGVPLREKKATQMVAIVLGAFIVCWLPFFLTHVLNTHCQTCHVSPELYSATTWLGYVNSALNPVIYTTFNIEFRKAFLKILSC

Measured: AC50
Further: assay procedure not described here.

O=C(NCCO[N+](=O)[O-])c1cccnc1 [NICORANDIL]
> 30 µM: all assays above

O=c1[nH]c2ccccc2n1CCCN1CCN(C(c2ccccc2)c2ccccc2)CC1 [OXATOMIDE]
12 µM: Motilin receptor
0.13 µM: D(3) dopamine receptor
> 30 µM: all other assays above

C[C@]12C/C(=C/O)C(=O)C[C@@H]1CC[C@@H]1[C@@H]2CC[C@@]2(C)[C@H]1CC[C@]2(C)O [OXYMETHOLONE]
19 µM: [5]
> 30 µM: all other assays above

COc1cc2[nH]c(C)c(CCN3CCN(c4ccccc4)CC3)c2cc1OC [OXYPERTINE]
> 10 µM: D(3) dopamine receptor
27 µM: [3]
> 30 µM: all other assays above

c1ccc(C2(N3CCCCC3)CCCCC2)cc1 [PHENCYCLIDINE]
> 30 µM: all assays above

OC[C@H]1O[C@@H](Oc2cc(O)cc(/C=C/c3ccc(O)cc3)c2)[C@H](O)[C@@H](O)[C@@H]1O [PICEID]
4.4 µM: [5]
> 30 µM: all other assays above

O=C1CC[C@@H](C(=O)N2CSC[C@H]2C(=O)O)N1 [PIDOTIMOD] ([pGlu]-[Thz]-OH)
> 30 µM: all assays above

COc1cc(C(=O)OCc2cccc(COC(=O)c3cc(OC)c(OC)c(OC)c3)n2)cc(OC)c1OC [PIROZADIL]
> 30 µM: all assays above

CCC(NC(C)C)C(O)c1ccc(O)c2[nH]c(=O)ccc12 (stereo not given) [PROCATEROL]
> 30 µM: all assays above

CCC(=O)O[C@](Cc1ccccc1)(c1ccccc1)[C@H](C)CN(C)C [PROPOXYPHENE]
> 30 µM: B2 bradykinin receptor | [1] | [5]
> 10 µM: all other assays above

O=c1c(O)c(-c2ccc(O)c(O)c2)oc2cc(O)cc(O)c12 [QUERCETIN]
> 10 µM: [2] | [3] | Motilin receptor
> 30 µM: all other assays above

C=CC[N+]1([C@H]2C[C@H]3[C@@H]4CC[C@H]5C[C@H](O)[C@@H](N6CCOCC6)C[C@]5(C)[C@H]4CC[C@]3(C)[C@H]2OC(C)=O)CCCC1 [ROCURONIUM]
> 30 µM: all assays above

CCCN1CCCC[C@H]1C(=O)Nc1c(C)cccc1C [ROPIVACAINE]
> 30 µM: all assays above

CCN1CCCC1CNC(=O)c1cc(S(=O)(=O)CC)ccc1OC (stereo not given) [SULTOPRIDE]
> 30 µM: all assays above

C=CCN1CCc2nc(N)sc2CC1 [TALIPEXOLE]
0.48 µM: D(3) dopamine receptor
> 30 µM: all other assays above

CCOC(=O)c1ccc(C#Cc2ccc3c(c2)C(C)(C)CCS3)nc1 [TAZAROTENE]
> 10 µM: [2] | [3] | Motilin receptor
> 30 µM: all other assays above

Cn1c(=O)c2c(ncn2CCOC(=O)C(C)(C)Oc2ccc(Cl)cc2)n(C)c1=O [THEOFIBRATE]
> 30 µM: all assays above

COc1cc(C(=O)NC2CCCNC2)cc(OC)c1OC (stereo not given) [TROXIPIDE]
> 10 µM: [5]
> 30 µM: all other assays above

CC(C)(C)NCC(O)c1ccccc1Cl (stereo not given) [TULOBUTEROL]
> 30 µM: all assays above

CC(C(=O)O)c1ccc2c(c1)CC(=O)c1ccccc1S2 (stereo not given) [ZALTOPROFEN]
> 30 µM: all assays above

From ChEMBL document CHEMBL5291721, “A preclinical secondary pharmacology resource illuminates target-adverse drug reaction associations of marketed drugs” (Nat Commun, 2023)
